From patent US5571822A, “Antitumor compounds” (The University of North Carolina at Chapel Hill, priority 1994, dated 1996)
“Also recorded” adds a separate entry of the source. Where two headings read alike, the source gives them in different places.

Columns and labels:
tubulin [1] = test: inhibition of tubulin polymerization (ITP); format: biochemical, bovine
Protocol: Electrophoretically homogeneous bovine brain tubulin was purified as described previously (Hamel, et al., 1984). […] Dihydrocombretastatin A-4 was prepared as described previously (Getahun et al., 1992).
The tubulin polymerization assay was performed as described previously (Li et al., 1994). In brief, tubulin at 1.2 mg/mL ([…]) was preincubated for 15 min at 26° C. in a 0.24 mL volume in 0.8M monosodium glutamate (pH 6.6 with NaOH in a 2M stock solution) with varying drug concentrations. The drug stock solutions were in dimethyl sulfoxide, and the final solvent concentration was 4% (v/v). […] All concentrations are in terms of the final reaction volume (0.25 mL). The reaction mixtures were chilled on ice, and […] of 10 mM GTP was added to each reaction mixture. Samples were transferred to cuvettes held at 0° C. by an electronic temperature controller in Gilford spectrophotometers. Baselines were established at 350 nm, and polymerization initiated by a temperature jump to 26° C. The jump took about 50 sec to complete. After 20 min, turbidity readings were recorded, and the temperature controller was set to 0° C. When depolymerization was complete, turbidity readings were again recorded. […] IC50 values were obtained graphically from inhibition of polymerization by different drug concentrations. Four spectrophotometers were used for each experimental sequence, with at least two control reactions (no drug) in each set.

tubulin [2] = test: inhibition of radiolabeled colchicine binding to tubulin (ICB); design: species or system bovine; settings: evaluated only when polymerization IC50 ≤ 1.0 μM; inhibitor equimolar with [3H]colchicine, 5-fold molar excess over tubulin
Protocol: Studies conducted in support of the present invention indicate that one mode of action of the 2-phenyl-4-quinolone compounds, as antitumor agents, is an ability to bind to tubulin and inhibit cell mitosis. […] […].
[…]. […] […].
Electrophoretically homogeneous bovine brain tubulin was purified as described previously (Hamel, et al., 1984). Combretastatin A-4 was a generous gift of Dr. G. R. Pettit, Arizona State University. Dihydrocombretastatin A-4 was prepared as described previously (Getahun et al., 1992). […]

K-562 = test: NCI in vitro tumor cell screen, K-562 leukemia; format: cell-based; settings: Homo sapiens, K562
Protocol: (§1) Selected 2-phenyl-4-quinolones were assayed using an in vitro, disease-oriented antitumor screen run by the National Cancer Institute (NCI) (e.g., Boyd 1989). The screen involved approximately 60 different cell lines and is a useful indicator of in vivo antitumor activity for a broad variety of tumor types (Grever et al., 1992; Monks et al., 1991). The cell lines tested included cells derived from the following solid tumor types: leukemia, non-small cell lung, colon, the central nervous system (CNS), melanoma, ovarian, renal, prostate, and breast cancers.

NCI-H226 = test: NCI in vitro tumor cell screen, NCI-H226 non-small cell lung cancer; format: cell-based; settings: Homo sapiens
Protocol: as §1

HCT116 = test: NCI in vitro tumor cell screen, HCT116 colon cancer; format: cell-based; settings: Homo sapiens, HCT-116
Protocol: as §1

KM202L = test: NCI in vitro tumor cell screen, KM20L2 colon cancer; format: cell-based; settings: Homo sapiens, KM-20L2
Protocol: as §1

SF-295 = test: NCI in vitro tumor cell screen, SF-295 CNS tumor; format: cell-based; settings: Homo sapiens, SF-295; read-out: logGI50 (converted)
Protocol: as §1
(§2) melonoma; SF268 and SF295, CNS tumor cell lines; DU145, prostate cancer

SK-Mel-5 = test: NCI in vitro tumor cell screen, SK-Mel-5 melanoma; format: cell-based; settings: Homo sapiens
Protocol: as §1, §2

OVCAR-3 = test: NCI in vitro tumor cell screen, OVCAR-3 ovarian cancer; format: cell-based; settings: Homo sapiens
Protocol: as §1

OVCAR-4 = test: NCI in vitro tumor cell screen, OVCAR-4 ovarian cancer; format: cell-based; settings: Homo sapiens
Protocol: as §1

RXF-393 = test: NCI in vitro tumor cell screen, RXF-393 renal cancer; format: cell-based; settings: Homo sapiens
Protocol: as §1

DU-145 = test: NCI in vitro tumor cell screen, DU-145 prostate cancer; format: cell-based; settings: Homo sapiens
Protocol: as §1, §2

MDA-N = test: NCI in vitro tumor cell screen, MDA-N breast cancer; format: cell-based; settings: Homo sapiens
Protocol: as §1

[3] = system: approximately 60 different cell lines; test: NCI in vitro disease-oriented human tumor cell screen, all cell lines; format: cell-based; settings: for GI50: Homo sapiens
From the text: The cell lines tested included cells derived from the following solid tumor types: leukemia, non-small cell lung, colon, the central nervous system (CNS), melanoma, ovarian, renal, prostate, and breast cancers.

protein-linked DNA = test: breaks in protein-linked DNA; settings: compared with VP-16
SF-268 = test: NCI in vitro tumor cell screen, SF-268 CNS tumor; format: cell-based; settings: Homo sapiens
Protocol: as §1, §2

[4] = ± SD, tubulin 1.2 mg/mL, 26° C., 20 min, read-out: ITP IC50 (inhibition of tubulin polymerization)
[5] = calculated from all cell lines tested (Table II), read-out: average logGI50 (converted)
[6] = SF-268, CNS tumor, read-out: logGI50 (converted)
[7] = average over cell lines, read-out: average log GI50 (converted)
[8] = values given in mM, read-out: IC50, inhibition of tubulin polymerization

Structure (SMILES)	IC50 (tubulin [1]; [4])	ICB (% inhibition of colchicine binding) (tubulin [2])	GI50 (K-562)	GI50 (NCI-H226)	GI50 (HCT116)	GI50 (KM202L)	GI50 (SF-295)	GI50 (SK-Mel-5)	GI50 (OVCAR-3)	GI50 (OVCAR-4)	GI50 (RXF-393)	GI50 (DU-145)	GI50 (MDA-N)	GI50 [3, 5]	breaks in protein-linked DNA (protein-linked DNA)	GI50 (SF-268; [6])	GI50 [3, 7]	antitumor activity / cytotoxicity, in words [3]	further results
O=c1cc(-c2cccc(OC(F)(F)F)c2)[nH]c2cc3c(cc12)OCO3 [compound 17, 3'-Trifluoromethoxy-6,7-methylenedioxy-2-phenyl-4-quinolone]	0.0005 ± 0.0001 mM	40 ± 5%	36.3 nM	195 nM	14.1 nM	36.3 nM	25.7 nM	170 nM	63.1 nM	25.7 nM	40.7 nM	45.7 nM	< 10 nM	417 nM	–	–	–	–	–
CCOc1cccc(-c2cc(=O)c3cc4c(cc3[nH]2)OCO4)c1 [compound 18, 3'-Ethoxy-6,7-methylenedioxy-2-phenyl-4-quinolone]	0.00047 ± 0.0001 mM	40 ± 2%	44.7 nM	324 nM	174 nM	182 nM	64.6 nM	191 nM	166 nM	–	275 nM	251 nM	17.8 nM	224 nM	–	269 nM	224 nM	–	–
COc1cccc(-c2cc(O)c3cc(NC(C)=O)ccc3n2)c1 [compound 27, 3'-Methoxy-6-acetamido-2-phenyl-4-quinolone]	0.0021 ± 0.0005 mM	–	–	–	–	–	–	–	–	–	–	–	–	20000 nM	no detectable breaks in protein-linked DNA	–	–	–	GI50 (SF-268; SF-268, read-out: logGI50 (converted)): 5500 nM
COc1cccc(-c2cc(O)c3cc(N4CCCC4)ccc3n2)c1 [compound 28, 3'-Methoxy-6-pyrrolinyl-2-phenyl-4-quinolone]	–	–	< 1 nM	< 1 nM	< 1 nM	< 1 nM	< 1 nM	< 1 nM	< 1 nM	2000 nM	< 1 nM	< 1 nM	< 1 nM	1.86 nM	–	< 1 nM	≤ 1.86 nM	most potent activity of all; also recorded: exceeded the sensitivity of the testing protocol for many of the cell lines tested	–
COc1cccc(-c2cc(O)c3cc(N(C)C)ccc3n2)c1 [compound 23, 3'-Methoxy-6-N,N-dimethylamino-2-phenyl-4-quinolone]	0.00038 ± 0.0001 mM	14 ± 8%	8.91 nM	44.7 nM	–	4.57 nM	15.5 nM	25.7 nM	15.1 nM	5500 nM	18.6 nM	34.7 nM	1.7 nM	30.2 nM	–	43.7 nM	31.6 nM	in every case lower than those observed for compounds 10-22, 25-27, and 32	IC50 (tubulin [1]; [8]): 0.00038 mM; difference in average log GI50 versus compounds 10-22, 25-27, and 32 [3]: at least 0.9 log units

Second part, led by results:

IC50 (tubulin [1]; [4])	ICB (% inhibition of colchicine binding) (tubulin [2])	Structure (SMILES)	GI50 (K-562)	GI50 (NCI-H226)	GI50 (HCT116)	GI50 (KM202L)	GI50 (SF-295)	GI50 (SK-Mel-5)	GI50 (OVCAR-3)	GI50 (OVCAR-4)	GI50 (RXF-393)	GI50 (DU-145)	GI50 (MDA-N)	GI50 [3, 5]	breaks in protein-linked DNA (protein-linked DNA)	GI50 (SF-268; [6])	GI50 [3, 7]	antitumor activity / cytotoxicity, in words [3]	further results
0.0007 ± 0.0002 mM	16 ± 5%	COc1cccc(-c2cc(O)c3cc(Cl)ccc3n2)c1 [compound 24, 3'-Methoxy-6-chloro-2-phenyl-4-quinolone]	–	–	–	–	–	–	–	–	–	–	–	–	no detectable breaks in protein-linked DNA	–	–	–	–
0.00045 ± 3e-05 mM	26 ± 5%	O=c1cc(-c2cccc(OCc3ccccc3)c2)[nH]c2cc3c(cc12)OCO3 [compound 19, 3'-Benzyloxy-6,7-methylenedioxy-2-phenyl-4-quinolone]	363 nM	229 nM	389 nM	224 nM	447 nM	282 nM	245 nM	> 100000 nM	407 nM	1100 nM	145 nM	676 nM	–	12900 nM	–	–	–
0.0023 ± 0.0007 mM	–	CC(=O)Nc1ccc2nc(-c3cccc(Cl)c3)cc(O)c2c1 [compound 26, 3'-Chloro-6-acetamido-2-phenyl-4-quinolone]	–	–	–	–	–	–	–	> 100000 nM	–	–	–	10500 nM	no detectable breaks in protein-linked DNA	–	–	–	–
0.014 ± 0.002 mM	–	COc1cccc(-c2cc(=O)c3cc(N4CCN(C)CC4)ccc3[nH]2)c1 [compound 32, 3'-Methoxy-6-methylpiperazinyl-2-phenyl-4-quinolone]	537 nM	1510 nM	437 nM	1510 nM	1820 nM	912 nM	–	> 10000 nM	457 nM	2510 nM	200 nM	1550 nM	–	1860 nM	–	–	IC50 (tubulin [1]; [8]): 0.014 mM
0.00036 ± 0.0001 mM	43 ± 10%	COc1cccc(-c2cc(O)c3cc(N4CCOCC4)ccc3n2)c1 [compound 31, 3'-Methoxy-6-morpholinyl-2-phenyl-4-quinolone]	24.5 nM	33.9 nM	26.9 nM	33.9 nM	49 nM	35.5 nM	20 nM	6310 nM	–	43.7 nM	8.32 nM	56.2 nM	–	53.7 nM	–	highly potent, with an antitumor activity comparable to that of compound 23	–
